Test results taken from article PMC12312386, “Multiple transactivation domains of EZH2 bind to the TAZ2 domain of p300 and stimulate the acetyltransferase function of p300” (Biochemical Journal, 2025).
No end group written: not given here.

Key:
[1] = target: T1, p300TAZ2 (TAZ2 domain of p300) (Homo sapiens, UniProt Q09472, A1723W); assay: Microscale thermophoresis (MST) binding of p300TAZ2-His to EZH2 TAD peptides; conditions: direct binding, p300TAZ2-6×His labeled RED-tris-NTA, 10 nM; 25 mM Tris pH 7.5, 150 mM NaCl, 2.5 mM DTT; 1:1 stoichiometry; average ± SD of three (EZH2TAD2, EZH2TAD3) or four (EZH2TAD1) independent measurements
T1 construct: Human p300TAZ2 [aa 1722–1812, pGEX-4T-1 vector with an additional tobacco etch virus (TEV) cleavage site]; GST (pGEX-4T-1, TEV site) (N, cleaved yes); made in house; host or cells: Escherichia coli Rosetta-2 (DE3) pLysS
T1 sequence (Q09472 1722-1812 A1723W): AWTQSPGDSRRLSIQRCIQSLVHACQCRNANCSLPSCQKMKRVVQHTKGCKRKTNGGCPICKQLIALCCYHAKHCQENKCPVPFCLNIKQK
Experimental: After induction with isopropyl b-D-1-thiogalactopyranoside (IPTG), harvesting, and lysis in buffer [50 mM Tris pH 7.0, 1 M NaCl, 5 mM dithiothreitol (DTT), 1 mM phenylmethanesulfonylfluoride (PMSF) and DNase] by sonication, the proteins were purified on glutathione agarose beads (Pierce) and eluted with buffer containing reduced L-glutathione (Fisher). The GST tag was either cleaved with TEV protease overnight at 22°C or kept intact during subsequent purification steps. Both GST- and His-tagged proteins, as well as untagged p300TAZ2, were further purified by cation exchange (HiTrap SP HP, Cytiva) or heparin affinity chromatography (HiTrap Heparin HP, Cytiva).
MST experiments were carried out on a Monolith NT.115 instrument (NanoTemper). All experiments were performed using SEC-purified p300TAZ2-6×His protein in 25 mM Tris pH 7.5 buffer, 150 mM NaCl, and 2.5 mM DTT. p300TAZ2-6×His was labeled using a His-Tag Labeling Kit RED-tris-NTA (2nd Generation, NanoTemper) and kept constant at 10 nM. Dissociation constants were determined using a direct binding assay in which peptide was varied in concentration by serial dilution of discrete samples. The measurements were performed at 50% LED and medium MST power with 3-s pre-laser time, 20-s laser on-time, and 1-s off-time.

[2] = system: GST-p300TAZ2; assay: Mass photometry (MP) of GST-p300TAZ2 with EZH2TAD constructs; type: binding, human
Experimental: [37]. […] After induction with isopropyl b-D-1-thiogalactopyranoside (IPTG), harvesting, and lysis in buffer [50 mM Tris pH 7.0, 1 M NaCl, 5 mM dithiothreitol (DTT), 1 mM phenylmethanesulfonylfluoride (PMSF) and DNase] by sonication, the proteins were purified on glutathione agarose beads (Pierce) and eluted with buffer containing reduced L-glutathione (Fisher). The GST tag was either cleaved with TEV protease overnight at 22°C or kept intact during subsequent purification steps. […] The EZH2TAD1 ([…]) construct was generated by deletion using Q5 Hot Start High-Fidelity kit (NEB) and confirmed by DNA sequencing. Both constructs were expressed in E. coli Rosetta-2 (DE3) pLysS cells grown in LB media and induced at an OD600 of 0.6-0.8 with 1 mM IPTG for 16 h at 16°C. Cells were harvested by centrifugation, suspended in buffer (50 mM Tris pH 7.5, 500 mM NaCl, 1% CHAPS, 2 mM DTT, 1 mM PMSF, Roche cOmplete Protease Inhibitor Cocktail, and DNase), and lysed by sonication. […] When necessary, EZH2TAD constructs were further purified using a Superdex 200 Increase 10/300 GL column (Cytiva) with monitoring at 205 and 280 nm. […] To overcome the minimum size limit, a GST-fusion construct was used for one of the components in each sample. […] Ten microliter of each sample was loaded into the sample wells of the silicon cassettes assembled onto MassGlass UC coverslips (Refeyn, Ltd.). […]

[3] = system: p300TAZ2; assay: Mass photometry (MP) of GST-EZH2TAD1 with p300TAZ2; type: binding, human
Experimental: [37]. Briefly, both ^15N-labeled and unlabeled constructs were expressed in Escherichia coli Rosetta-2 (DE3) pLysS cells grown in either M9 minimal media or TB, both supplemented with 50-150 μM ZnCl2. After induction with isopropyl b-D-1-thiogalactopyranoside (IPTG), harvesting, and lysis in buffer [50 mM Tris pH 7.0, 1 M NaCl, 5 mM dithiothreitol (DTT), 1 mM phenylmethanesulfonylfluoride (PMSF) and DNase] by sonication, the proteins were purified on glutathione agarose beads (Pierce) and eluted with buffer containing reduced L-glutathione (Fisher). The GST tag was either cleaved with TEV protease overnight at 22°C or kept intact during subsequent purification steps. […] Human EZH2[…]3 ([…]) construct with a C-terminal 6×His tag was cloned into a pGEX-6P-1 vector (GenScript). The EZH2TAD1 ([…]) construct was generated by deletion using Q5 Hot Start High-Fidelity kit (NEB) and confirmed by DNA sequencing. Both constructs were expressed in E. coli Rosetta-2 (DE3) pLysS cells grown in LB media and induced at an OD600 of 0.6-0.8 with 1 mM IPTG for 16 h at 16°C. Cells were harvested by centrifugation, suspended in buffer (50 mM Tris pH 7.5, 500 mM NaCl, 1% CHAPS, 2 mM DTT, 1 mM PMSF, Roche cOmplete Protease Inhibitor Cocktail, and DNase), and lysed by sonication. […] When necessary, EZH2TAD constructs were further purified using a Superdex 200 Increase 10/300 GL column (Cytiva) with monitoring at 205 and 280 nm. Mass Photometry […] To overcome the minimum size limit, a GST-fusion construct was used for one of the components in each sample. […] Ten microliter of each sample was loaded into the sample wells of the silicon cassettes assembled onto MassGlass UC coverslips (Refeyn, Ltd.). Measurements were performed at room temperature in buffer (50 mM Tris pH 7.5, 150 mM NaCl, 5 mM DTT). β-amylase was used as calibration standard (56 kDa, 112 kDa, and 224 kDa). After the focus was set and locked, movies were captured for 60 s (2800 frames) using AcquireMP software (Refeyn Ltd). Data were processed using DiscoverMP (Refeyn Ltd).

[4] = system: FLAG-HA-tagged p300 catalytic core (aa 1035–1830 of p300); assay: Histone acetyltransferase (HAT) assay, Western blot, recombinant nucleosome substrate; type: biochemical; conditions: 1 μg p300 core, 2.5, 5 or 10 μg GST-tagged TADs, 1 μg nucleosome, 100 mM acetyl-CoA, 50 mM Tris-HCl pH 8.0, 30°C, 15 min
Experimental: Histone acetyltransferase assay
For HAT assays, FLAG-HA-tagged p300 core (aa 1035–1830 of p300) in a pCDH vector was expressed in 293 T cells for two days. Cells were lysed in lysis buffer (50 mM Tris-HCl pH 7.5, 300 mM NaCl, 1.5 mM MgCl2, 1 mM EDTA, 1% Triton100, 10% glycerol, 1 mM PMSF, and protease inhibitors) and sonicated. Cell lysates were incubated with anti-Flag M2 beads (Sigma) at 4° for 4 h. The beads were then washed three times with buffer (50 mM Tris-HCl pH 7.5, 500 mM NaCl, 1.5 mM MgCl2, 0.2 mM EDTA, 0.1% NP40, 10% glycerol, and 1 mM PMSF), and the protein was eluted with elution buffer (50 mM Tris-HCl pH 7.5, 300 mM NaCl, 1 mM DTT, 10% glycerol, and 0.4 mg/ml Flag peptide). […]
Purified FLAG-HA-tagged p300 catalytic core fragment (1 μg) was incubated with increasing amounts of GST-tagged EZH2TADs and GST-tagged EZH1TADs (2.5, 5, or 10 μg) and the nucleosome (1 μg) in HAT reaction buffer (50 mM Tris-HCl pH 8.0, 100 mM NaCl, 10% glycerol, 1 mM DTT, […], and 1× cOmplete EDTA-free Protease Inhibitor Cocktail) at 30°C for 15 min. Reactions were stopped by boiling at 95°C for 5 min in 2×SDS loading buffer, and samples were analyzed by SDS-PAGE and Western blot. […]

## NDEIFVELVNALGQYNDDD [EZH2TAD2]
[1]
  Kd: 310 nM

## DGTFIEELIKNYD [EZH2TAD1]
[1]
  Kd: 530 ± 80 nM

## EZH2TAD1-TAD2-TAD3: recombinant human EZH2 aa 142–231 construct with a C-terminal 6×His tag, used in mass photometry
[2]; 20 nM GST-p300TAZ2 + 1 μM EZH2TAD1-TAD2-TAD3, room temperature, 50 mM Tris pH 7.5, 150 mM NaCl, 5 mM DTT
  MP peak of complex with GST-p300TAZ2: ~ 224 kDa
[2]; from MP peak, 20 nM GST-p300TAZ2, EZH2TAD1-TAD2 5 μM or EZH2TAD1-TAD2-TAD3 1 μM
  stoichiometry of the complex with GST-p300TAZ2: six molecules of GST-p300TAZ2 and one molecule of EZH2TAD1-TAD2-TAD3

## GST-EZH2TAD1: recombinant GST-tagged EZH2TAD1 (aa 142–160) construct (DGTFIEELIKNYDGKVHGD-His6; also: GST tag, end not given here)
[3]; 20 nM GST-EZH2TAD1, 0.1 μM p300TAZ2
  shift of the MP peak upon addition of p300TAZ2: ~ 14 kDa
[3]; 20 nM GST-EZH2TAD1 alone
  oligomeric state in the apo-state: formed a dimer in the apo-state
[3]; 20 nM GST-EZH2TAD1 alone, room temperature, 50 mM Tris pH 7.5, 150 mM NaCl, 5 mM DTT
  MP peak, apo GST-EZH2TAD1: ~ 70 kDa
[3]; 20 nM GST-EZH2TAD1 with 0.1 μM p300TAZ2
  oligomeric state / stoichiometry of GST-EZH2TAD1 complexes: dimeric GST-EZH2TAD1 bound by one molecule of p300TAZ2 and by two molecules of p300TAZ2

## EZH2 WT: GST-tagged EZH2TAD1-TAD2-TAD3 (aa 119–267)
[4]; H3K18ac Western blot
  H3K18 acetylation by p300 core: dose-dependent increase in H3K18 and H3K27 acetylation
[4]; H3K27ac Western blot
  H3K27 acetylation by p300 core: dose-dependent increase in H3K18 and H3K27 acetylation

## SDKIFEAISSMF [EZH2TAD3]
[1]
  Kd: 520 ± 60 nM
